Test results published in patent US6214856A, “Indolecarboxamides, pharmaceutical compositions and methods of inhibiting calpain” (SmithKline Beecham Corporation, priority 1999, dated 2001).

Tested on: calpain
Assay: inhibition of calpain in vitro (rate of hydrolysis of synthetic fluorogenic substrates)
Type: biochemical
Settings: percent decrease in rate of substrate hydrolysis
Description: The assays were performed using synthetic fluorogenic substrates. Inhibition of enzyme activity was calculated on the percent decrease in the rate of substrate hydrolysis in the presence of inhibitor relative to the rate in its absence. IC50s (nM) were calculated.

Row | Compound | IC50
1 | Cn1c(C(=O)N[C@H](C=O)Cc2ccccc2)cc2ccccc21 [Example 1, (S)-N-(1-formyl-2-phenylethyl)-1-methyl-2-indolecarboxamide] | 500 nM
2 | O=C[C@H](Cc1ccccc1)NC(=O)c1cc2ccccc2[nH]1 [Example 2, (S)-N-(1-formyl-2-phenylethyl)-2-indolecarboxamide] | 600 nM
3 | COc1cc2cc(C(=O)N[C@H](C=O)Cc3ccccc3)[nH]c2cc1OCc1ccccc1 [Example 3, (S)-N-(1-formyl-2-phenylethyl)-5-methoxy-6-(phenylmethoxy)-2-indolecarboxamide] | 135 nM
4 | O=C[C@H](Cc1ccccc1)NC(=O)c1cc2cc(Br)ccc2[nH]1 [Example 4, (S)-5-bromo-N-(1-formyl-2-phenylethyl)-2-indolecarboxamide] | 230 nM
5 | CS(=O)(=O)n1c(C(=O)N[C@H](C=O)Cc2ccccc2)cc2ccccc21 [Example 5, (S)-N-(1-formyl-2-phenylethyl)-1-(methylsulfonyl)-2-indolecarboxamide] | 600 nM
6 | O=C[C@H](Cc1ccccc1)NC(=O)c1cc2ccccc2n1Cc1ccccc1 [Example 6, (S)-N-(1-formyl-2-phenylethyl)-1-(phenylmethyl)-2-indolecarboxamide] | 500 nM
7 | COc1ccc2cc(C(=O)N[C@H](C=O)Cc3ccccc3)[nH]c2c1 [Example 7, (S)-N-(1-formyl-2-phenylethyl)-6-methoxy-2-indolecarboxamide] | 600 nM
8 | Cc1c(C(=O)N[C@H](C=O)Cc2ccccc2)n(Cc2ccccc2)c2ccccc12 [Example 8, (S)-N-(1-formyl-2-phenylethyl)-3-methyl-1-(phenylmethyl)-2-indolecarboxamide] | 30 nM
